Measurements published in publication PMC8219897 (Water Research X, 2021).
In brackets after ≈: the same amount, converted by molar mass. Where two headings read alike, the source gives them in different places. One block for each molecule: values may come before it.

What was measured:
[1] = target: T1, human estrogen receptor alpha (ERα) (Homo sapiens, UniProt P03372); assay: Yeast estrogen screen; assay type: cell-based; details: for Estrogenic effects in single testing (in words): single compounds, Figure SI 5B
T1 sequence (P03372 1-595): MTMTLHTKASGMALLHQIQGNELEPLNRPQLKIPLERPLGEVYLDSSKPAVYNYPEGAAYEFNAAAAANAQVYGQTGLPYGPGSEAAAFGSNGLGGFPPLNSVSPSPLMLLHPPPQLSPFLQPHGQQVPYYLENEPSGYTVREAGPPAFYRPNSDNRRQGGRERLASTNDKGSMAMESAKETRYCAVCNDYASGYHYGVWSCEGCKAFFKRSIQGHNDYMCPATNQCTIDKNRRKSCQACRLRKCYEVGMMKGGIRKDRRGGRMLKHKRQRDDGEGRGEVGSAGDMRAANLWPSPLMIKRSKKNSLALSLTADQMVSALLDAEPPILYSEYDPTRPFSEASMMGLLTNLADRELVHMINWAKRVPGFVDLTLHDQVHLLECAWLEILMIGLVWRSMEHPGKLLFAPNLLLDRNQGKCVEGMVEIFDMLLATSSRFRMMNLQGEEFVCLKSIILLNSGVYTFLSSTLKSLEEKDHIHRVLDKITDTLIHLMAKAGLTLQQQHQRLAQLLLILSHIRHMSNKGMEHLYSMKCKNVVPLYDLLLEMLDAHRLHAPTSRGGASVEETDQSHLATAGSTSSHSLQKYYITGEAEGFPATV

[2] = tested on: aquatic life; details: proposed by ECHA; ref ECHA; cited from earlier work
[3] = aqueous solution, pseudo-first-order kinetic; ref Kovacic et al. 2019; cited from earlier work
[4] = tested on: ERα; details: read-out: IC50, competitive binding to ERα; ref Nakagawa and Suzuki 2001; cited from earlier work
[5] = tested on: Aliivibrio fischeri; assay type: cell-based; details: present study
[6] = muscle, liver and gill tissue of wild fish, Panlong River; ref Wang et al. 2016; cited from earlier work
[7] = tested on: human placental JEG-3 cells; details: read-out: EC50, cytotoxic effects, ref Perez-Albaladejo et al. (2019); cited from earlier work
[8] = tested on: P450 aromatase; details: JEG-3 cells, at 20 µM; ref Perez-Albaladejo et al. (2019); cited from earlier work
[9] = tested on: estrogen-related receptor; details: recombined yeast strains; ref Li et al. (2010); cited from earlier work
[10] = tested on: MCF-7 cells; details: read-out: EC50, estrogen-like effects, ref Kitamura et al. 2005; cited from earlier work
[11] = tested on: NIH3T3 cells; details: read-out: EC50, anti-androgenic effects, ref Kitamura et al. 2005; cited from earlier work
[12] = tested on: zebrafish embryos; details: ref McCormick et al. (2011); cited from earlier work
[13] = leachates of UV irradiated coating B

Structure (SMILES): CC(C)(c1ccc(O)cc1)c1ccc(O)cc1 [BPA, bisphenol A]
Mean contribution to estrogenicity of the quantified substances (toxic units) ([1]; leachates of UV irradiated coating A): 3% | Mean contribution to estrogenicity of the quantified substances (toxic units) [1, 13]: 16% | Predicted no effect concentration (PNEC), freshwater [2]: 18 µg/L | Predicted no effect concentration (PNEC), freshwater sediments [2]: 1.2 µg/g dry weight | Half-life time of degradation under UV irradiation [3]: about 6 h | IC50 [4]: 10 µM

Structure (SMILES): Oc1ccccc1-c1ccccc1 [2PP, 2-phenylphenol]
Estrogenic effects in single testing (in words) [1]: showed estrogenic potential

Estrogenic effects in single testing (in words) [1]: not estrogenic
Structure (SMILES): CC(C)(c1ccc(OCC(O)CO)cc1)c1ccc(OCC(O)CO)cc1 (stereo not drawn) [Bis-HPPP, bisphenol A bis(2,3-dihydroxypropyl) ether]

Structure (SMILES): CC(C)(c1ccccc1)c1ccc(O)cc1 [4CP, 4-cumylphenol]
Potency compared to BPA in the luminescent bacteria assay [5]: more potent | EC50 [1]: 0.212 µM | Mean contribution to estrogenicity of the quantified substances (toxic units) [1, 13]: 1% | Predicted no effect concentration (PNEC), freshwater [2]: 14.2 µg/L | Predicted no effect concentration (PNEC), freshwater sediments [2]: 3.58 µg/g dry weight | Bioconcentration factor (BCF) [6]: up to 10 | EC50 [7]: 65 µM | Increase of P450 aromatase activity [8]: 1.3 fold

Structure (SMILES): CC(C)(C)c1ccccc1O [2-tert-butylphenol]
Effect on estrogen-related receptor gamma [9]: inverse agonistic effects

EC50 ([1]; read-out: EC50, yeast estrogen screen, single compound, present results): 31 µM | EC50, yeast estrogen screen ([1]; single compound, present results): 7.5 µg/mL (≈ 30.7 µM) | Estrogenic effects in single testing (in words) [1]: showed estrogenic potential
Structure (SMILES): CC(C)(c1ccc(O)cc1)c1ccc(O)c(O)c1 [BPA-I10, 5-hydroxybisphenol A]
IC50 [4]: 50 µM | EC50 [10]: 1.8 µM | EC50 [11]: 14 µM

Structure (SMILES): COc1ccc(C(C)(C)c2ccc(O)cc2)cc1 [BPA-I11, 4-[1-(4-methoxyphenyl)-1-methylethyl]phenol]
Potency compared to BPA in the luminescent bacteria assay [5]: more potent | EC50 [1]: 0.666 µM | Mean contribution to estrogenicity of the quantified substances (toxic units) [1, 13]: 2% | Half maximal lethal concentration [12]: up to 0.66 mg/l
